Experimental data reported in patent US20120053053A1, “PYRIMIDINE DERIVATIVES AND THEIR USE AS HERBICIDES” (SYNGENTA CROP PROTECTION, LLC, priority 2009, published 2012).

Key:
[1] = system: Alopecurus myosuroides (ALOMY); assay: Pre-emergence biological efficacy (percentage damage); assay type: in vivo; settings: Alopecurus myosuroides, 312 h, dose 1,000 g/ha, evaluated after 13 days, 100=total damage, 0=no damage
Procedure, shortened: (§1)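 In this pre-emergence test, pots of standard soil sown with seed are treated after one day of glasshouse cultivation using compound formulated in acetone/water (50:50) containing 0.5% Tween 20, dosed at 250 or 1000 g/ha. Growth continues at 24/16 °C day/night with 14 h light and 65% humidity, and damage is rated after 13 days.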

[2] = system: Amaranthus retoflexus (AMARE); assay: as above; assay type: in vivo; settings: Amaranthus retroflexus, 312 h, dose 1,000 g/ha, evaluated after 13 days, 100=total damage, 0=no damage
Procedure, shortened: as §1

[3] = system: Echinochloa crus-galli (ECHCG); assay: as above; assay type: in vivo; settings: Echinochloa crus-galli, 312 h, dose 1,000 g/ha, evaluated after 13 days, 100=total damage, 0=no damage
Procedure, shortened: as §1

[4] = system: Ipomea hederaceae (IPOHE); assay: as above; assay type: in vivo; settings: Ipomoea hederacea, 312 h, dose 1,000 g/ha, evaluated after 13 days, 100=total damage, 0=no damage
Procedure, shortened: as §1

Setaria faberi (SETFA) [5] = assay: as above; assay type: in vivo; settings: Setaria faberi, 312 h, dose 1,000 g/ha, evaluated after 13 days, 100=total damage, 0=no damage
Procedure, shortened: as §1

Solanum nigrum (SOLNI) [6] = assay: as above; assay type: in vivo; settings: Solanum nigrum, 312 h, dose 1,000 g/ha, evaluated after 13 days, 100=total damage, 0=no damage
Procedure, shortened: as §1

[7] = system: Alopecurus myosuroides (ALOMY); assay: Post-emergence biological efficacy (percentage damage); assay type: in vivo; settings: Alopecurus myosuroides, 312 h, dose 1,000 g/ha, evaluated after 13 days, 100=total damage, 0=no damage
Procedure, shortened: (§2)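 Post-emergence spray, 250 or 1000 g/ha, acetone/water 50:50 + 0.5% Tween 20, on 8-day-old potted plants; glasshouse 24/16 °C, 14 h light, 65% RH, watered twice daily; % damage read at 13 d.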

[8] = system: Amaranthus retoflexus (AMARE); assay: as above; assay type: in vivo; settings: Amaranthus retroflexus, 312 h, dose 1,000 g/ha, evaluated after 13 days, 100=total damage, 0=no damage
Procedure, shortened: as §2

[9] = system: Echinochloa crus-galli (ECHCG); assay: as above; assay type: in vivo; settings: Echinochloa crus-galli, 312 h, dose 1,000 g/ha, evaluated after 13 days, 100=total damage, 0=no damage
Procedure, shortened: as §2

[10] = system: Ipomea hederaceae (IPOHE); assay: as above; assay type: in vivo; settings: Ipomoea hederacea, 312 h, dose 1,000 g/ha, evaluated after 13 days, 100=total damage, 0=no damage
Procedure, shortened: as §2

Setaria faberi (SETFA) [11] = assay: as above; assay type: in vivo; settings: Setaria faberi, 312 h, dose 1,000 g/ha, evaluated after 13 days, 100=total damage, 0=no damage
Procedure, shortened: as §2

Solanum nigrum (SOLNI) [12] = assay: as above; assay type: in vivo; settings: Solanum nigrum, 312 h, dose 1,000 g/ha, evaluated after 13 days, 100=total damage, 0=no damage
Procedure, shortened: as §2

| melting point | SMILES | pest or weed control at 1000 g/ha [1] | pest or weed control at 1000 g/ha [2] | pest or weed control at 1000 g/ha [3] | pest or weed control at 1000 g/ha [4] | pest or weed control at 1000 g/ha (Setaria faberi (SETFA) [5]) | pest or weed control at 1000 g/ha (Solanum nigrum (SOLNI) [6]) | pest or weed control at 1000 g/ha [7] | pest or weed control at 1000 g/ha [8] | pest or weed control at 1000 g/ha [9] | pest or weed control at 1000 g/ha [10] | pest or weed control at 1000 g/ha (Setaria faberi (SETFA) [11]) | pest or weed control at 1000 g/ha (Solanum nigrum (SOLNI) [12]) |
| --- | --- | --- | --- | --- | --- | --- | --- | --- | --- | --- | --- | --- | --- |
| 74 to 75 °C | C=Cc1c(C(=O)OC)nc(C2CC2)nc1[S+](C)[O-] (stereo not shown) [Compound 2-401, 2-cyclopropyl-5-ethenyl-6-methoxycarbonyl-4-methylsulphinyl-pyrimidine] | 0% | 70% | 0% | 70% | 0% | 10% | 0% | 70% | 0% | 70% | 0% | 80% |
| 107 to 108 °C | C=Cc1c(OC)nc(-c2ccc(Cl)c(OC)c2F)nc1C(=O)OC [Compound 27-398, 2-(4-chloro-2-fluoro-3-methoxyphenyl)-5-ethenyl-4-methoxy-6-methoxycarbonyl-pyrimidine] | 0% | 0% | 0% | 0% | 0% | 0% | 0% | 0% | 0% | 40% | 0% | 20% |
| 156 to 158 °C | COC(=O)c1nc(-c2ccc(Cl)c(N(C)C)c2F)nc(N)c1C1CC1 [Compound 33-58, 4-amino-2-(4-chloro-3-dimethylamino-2-fluorophenyl)-5-cyclopropyl-6-methoxycarbonylpyrimidine] | 0% | 0% | 0% | 0% | 0% | 0% | 10% | 10% | 10% | 0% | 60% | 10% |
| 122 to 123 °C | C=Cc1c(N)nc(-c2ccc(C)cc2)nc1C(=O)OC [Compound 36-61, 4-amino-5-ethenyl-6-methoxycarbonyl-2-(4-methylphenyl)-pyrimidine] | 70% | 100% | 90% | 100% | 80% | 100% | 70% | 100% | 90% | 90% | 80% | 80% |
